The results in this text go back to ChEMBL document CHEMBL1156122, “Protein tyrosine phosphatase 1B inhibitors isolated from Morus bombycis” (Bioorg Med Chem Lett, 2009).

Each structure is given as a SMILES string.

The target in this assay is T1, Tyrosine-protein phosphatase non-receptor type 1 (Homo sapiens, UniProt P18031).
T1 sequence (P18031 whole entry): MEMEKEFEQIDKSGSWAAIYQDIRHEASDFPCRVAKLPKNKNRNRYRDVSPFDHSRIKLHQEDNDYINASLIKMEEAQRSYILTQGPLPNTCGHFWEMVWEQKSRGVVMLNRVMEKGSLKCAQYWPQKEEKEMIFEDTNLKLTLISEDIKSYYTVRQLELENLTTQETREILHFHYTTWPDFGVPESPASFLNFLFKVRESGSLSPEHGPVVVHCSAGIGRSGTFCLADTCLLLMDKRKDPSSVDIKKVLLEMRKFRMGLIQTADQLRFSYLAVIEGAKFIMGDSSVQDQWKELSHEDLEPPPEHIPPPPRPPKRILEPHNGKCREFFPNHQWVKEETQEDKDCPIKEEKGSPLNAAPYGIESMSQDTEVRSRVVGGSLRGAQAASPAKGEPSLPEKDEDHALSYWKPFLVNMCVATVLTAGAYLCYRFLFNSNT
As to the kind of experiment: Inhibition of human recombinant PTP1B.
Regarding `CC(C)=CCC/C(C)=C/Cc1c(O)cc(O)cc1-c1cc2ccc(O)cc2o1` [ALBAFURAN A], the half-maximal inhibitory concentration (IC50) – broadly, the concentration that gives 50% inhibition – was determined as 9.2 µM.
The value for `CC(C)=CCc1c(O)cc(C(=O)[C@H]2[C@@H](c3c(O)ccc(C(=O)/C=C/c4ccc(O)cc4O)c3O)C=C(C)C[C@@H]2c2ccc(O)cc2O)cc1O` [KUWANON J] was 2.7 µM; that for `CC(C)=CCc1c(O)cc(C(=O)[C@H]2[C@@H](c3c(O)ccc(C(=O)/C=C/c4ccc(O)cc4)c3O)C=C(C)C[C@@H]2c2ccc(O)cc2O)cc1O` [KUWANON R] was 8.2 µM.
The value for `CC(C)=CCc1c(O)cc(C(=O)[C@H]2[C@@H](c3c(O)ccc(C(=O)/C=C/c4ccc(O)cc4)c3O)C=C(C)C[C@@H]2c2ccc(O)cc2)cc1O` [KUWANON V] was 13.8 µM; that for `CC(C)=CCC/C(C)=C/Cc1c(O)ccc2cc(-c3cc(O)cc(O)c3CC=C(C)C)oc12` [MULBERROFURAN D] was 4.3 µM; that for `CC(C)=CCC/C(C)=C\CC/C(C)=C\Cc1c(O)cc(O)cc1-c1cc2ccc(O)cc2o1` [MULBERROFURAN W] was 2.7 µM.
